Like-named read-outs stand apart in the source and are kept apart here.
Columns and labels:
human plasma protein = assay: Binding rate test of compounds and human plasma protein (equilibrium dialysis); assay type: in vitro ADME; conditions: 1 μM, equilibrium dialysis 6 hours, 37° C.
Experimental: (§1) (1) The dry dialysis membrane was soaked with ultrapure water for 20 min or more than 20 min, then soaked with 20% ethanol for 30 min to 1 h, and the membrane was rinsed with ultrapure water 2-3 times. Finally, the membrane was soaked with ultrapure water for 20 minutes for later use.
(§2) (2) The frozen plasma was thawed in a water bath at 37° C.
(§3) (3) The test compound was diluted into plasma preheated to 37° C. at a final concentration of 1 μM, and the final concentration of the control compound warfarin in plasma was 2 μM.
(§4) (4) The pre-treated dialysis membrane was assembled into the dialysis plate according to the specification of the product, and 120 μL of the receiving solution (100 mM phosphate buffer solution added 0.002% Tween 80) was added to one side of the permeable membrane in each dialysis well.
(§5) (5) 20 μL of each of the final solutions of the test compound and the control compound were added into a 96-well sample plate in duplicate, and the TO sample was obtained, which was stored in a refrigerator at −20° C. Another 20 μL of the above final solution was added to the other side of the membrane in the dialysis device in duplicate, and incubated at 37° C. by shaking at constant temperature for 6 hours.
(§6) (6) After 6 hours of incubation, 20 L of each of the dialyzed receiving solution and the administered plasma were weighed to obtain sample B and sample A in duplicate. The corresponding volume of corresponding blank plasma or receiving solution was added to sample B and sample A, respectively, so that the volume ratio of plasma to buffer in each sample well was 1:1. 300 μL of acetonitrile solution containing internal standard was added to all sample wells, and centrifuged after mixed uniformly.
(§7) (7) 200 μL of ultrapure water (150 μL for the control group) was added into the corresponding sample wells of the 96-well sample plate, and 300 μL of the supernatant (150 μL for the control group) was added into the sample well; the samples were analyzed after mixed uniformly. The free percentage and recovery rate of the compound in plasma were calculated using the following formula: Plasma protein binding rate (%)=1−free percentage, wherein free percentage (%)=CB/CA
(§8) wherein CB is the concentration of the compound in the receiving solution after equilibrium dialysis, CA is the concentration of the compound in the drug-dosed plasma after equilibrium dialysis, and CT0 is the initial concentration of the compound in plasma.

Huh7/FG2 cells = assay: EC50 assay of small molecule activated γδ T cells to kill Huh7/FG2 tumor cells; assay type: cell-based; conditions: γδT cells + Huh7/FG2, E:T=5:1, co-culture 20 hours, 0.05-100 nM, read-out: Huh7 killing (EC50)
Experimental: γδT cells and Huh7/FG2 tumor cell lines were expanded and cultured in vitro. The Huh7/FG2 cells were digested, and the cells were counted and resuspended in DMEM complete medium, the density of the cell suspension was adjusted and added into a 96-well plate at 5×10^3 cells/100 μL/well for overnight incubation. On the next day, the test compound and the control compound were diluted at a 3-fold ratio with DMSO, and 4 μL of the diluted compound was added to 96 μL of culture medium for 25-fold dilution. 5 μL of 25-fold diluted compound was transferred to the corresponding well which had been plated with tumor cells, and the actual detection concentration was in the range of 0.05-100 nM. γδT cells were resuspended in γδT complete medium, and the density of the cell suspension was adjusted according to the effector-target ratio of E:T=5:1, and then the cell was added to the corresponding well at 2.5×10^4 cells/100 μL/well. After co-culture at 37° C., 5% CO2 for 20 hours, the cells were centrifuged. […] After standing for 18 minutes in the dark, the signal of chemiluminescence was detected. The EC50 value was calculated by four-parameter fitting, with the corresponding signal value of the well with only tumor cells as the minimum killing value, and the corresponding value of the well without tumor cells as the maximum killing value.

[1] = Pharmacokinetic test in cynomolgus monkeys; assay type: in vivo; conditions: IV 2 mg/kg
Experimental: The control compound 2 and compound 19 were formulated into 1 mg/mL solution in 10% DMSO/90% PBS. Cynomolgus monkeys were obtained from Suzhou Leo Bio Technology Co., Ltd. The control compound 2 and compound 19 were administered intravenously at 2 mg/kg, respectively. The blood collected before administration was recorded as zero point. Then 1 mL of blood was collected at eight time points: 0.083, 0.15, 0.5, 1.0 2.0, 4.0, 8.0, and 24.0, respectively. 1 mL of the collected whole blood was placed in a labeled EDTA-2K anticoagulant tube. After gently inverting up and down to fully mix the anticoagulant (EDTA-2K) with the blood, it was immediately placed in wet ice and centrifuged within 30 minutes to separate the plasma. The centrifugation conditions were set to 4° C., 2200 g, and 6 min. The plasma separated after centrifugation was placed in a labeled EP tube, and the content of compound 19 and control compound 2 in the plasma samples at different time points were detected and analyzed. There were 3 male cynomolgus monkeys in each group.

MIApaca/FG2 cells = assay: EC50 assay of small molecule activated γδ T cells to kill MIApaca/FG2 tumor cells (3-fold dilution protocol); assay type: cell-based; conditions: 0.05-100 nM, read-out: MIApaca killing (EC50)
Experimental: γδT cells and MIApaca/FG2 tumor cell lines were expanded and cultured in vitro. MIApaca/FG2 cells were digested, and the cells were counted and resuspended in DMEM complete medium, the density of the cell suspension was adjusted and added into a 96-well plate at 5×10^3 cells/100 […]/well for overnight incubation. On the next day, the test compound and the control compound were diluted at a 3-fold ratio with DMSO, and 4 μL of the diluted compound was added to 96 μL of culture medium for 25-fold dilution. 5 μL of 25-fold diluted compound was transferred to the corresponding well which had been plated with tumor cells, and the actual detection concentration was in the range of 0.05-100 nM. γδT cells were resuspended in γδT complete medium, and the density of the cell suspension was adjusted according to the effector-target ratio of E:T=2:1, and then the cell was added to the corresponding well at 1×10^4 cells/100 μL/well. After co-culture at 37° C., 5% CO2 for 20 hours, the cells were centrifuged. The supernatant was removed, and 50 μL of cell lysate containing fluorescein substrate was added to each well. After standing for 18 minutes in the dark, the signal of chemiluminescence was detected. The EC50 value was calculated by four-parameter fitting, with the corresponding signal value of the well with only tumor cells as the minimum killing value, and the corresponding value of the well without tumor cells as the maximum killing value. The killing data of MIApaca/FG2 cells is as follows: […]

[2] = Binding rate test of compounds and human plasma protein (equilibrium dialysis); assay type: in vitro ADME; conditions: human plasma, equilibrium dialysis 6 hours, 37° C.
Experimental: as §1, §2, §3, §4, §5, §6, §7, §8

Row | Compound | human plasma protein binding rate (human plasma protein) [%] | EC50 (Huh7/FG2 cells) [nM] | Plasma concentration of the unchanged drug ([1]; 5 min) [ng/mL] | Plasma concentration of the unchanged drug ([1]; 9 min) [ng/mL] | Plasma concentration of the unchanged drug ([1]; 30 min) [ng/mL] | Plasma concentration of the unchanged drug ([1]; 1 h) [ng/mL] | AUC0-t (AUClast) ([1]; average) [ng·h/mL] | AUC0-t/AUC0-inf ([1]; average) | Cl (Cl_obs) ([1]; average) [mL/min/kg] | EC50 (MIApaca/FG2 cells; γδT cells + MIApaca/FG2, E:T=2:1, co-culture 20 hours) [nM] | fraction unbound at 6 h, 1 μM [2] | EC50 (Huh7/FG2 cells; Homo sapiens, Huh-7) [nM] | EC50 (MIApaca/FG2 cells; Homo sapiens, MIA PaCa-2, γδT cells + MIApaca/FG2, E:T=2:1, co-culture 20 hours) [nM]
1 | C/C(=C\CC[P@@](=O)(N[C@@H](C)C(=O)O[C@@H]1CCOC1)Oc1ccccc1)CO [Compound 19, (R)-tetrahydrofuran-3-yl ((S)-((R)-5-hydroxy-4-methylpent-3-en-1-yl)(phenoxy)phosphoryl)-L-alaninate] | 64.6 | 0.42 | 1370 | 878 | 139 | 12 | 426 | 0.959 | 76.3 | 0.28 |  |  | 
2 | C/C(=C\CCP(=O)(N[C@@H](C)C(=O)OC(C)C)Oc1ccccc1)CO (stereo partly drawn) [Control compound 1, Isopropyl (((E)-5-hydroxy-4-methylpent-3-en-1-yl)(phenoxy)phosphoryl)-L-alaninate, reference compound] |  |  |  |  |  |  |  |  |  |  | 0.073 | 1.68 | 0.53

Reference: US20260207637A1, “MODULATOR FOR PROMOTING BINDING OF BUTYROPHILIN 3A1/2A1” (priority 2023, published 2026)
